Measurements published in patent publication US20230000894A1, “TREATING MITOCHONDRIAL DNA DEPLETION DISORDERS” (MITORAINBOW THERAPEUTICS, INC., priority 2019, published 2023).

Tests used:
[1] = Systemic exposure of dC and dT after oral dCMP+dTMP vs intravenous dC(P2)dT (Example 1); format: in vivo; conditions: for metabolism in vivo (detectability of administered labeled analyte in plasma) / higher oral dose needed to deliver comparable plasma exposure of the corresponding nucleoside compared with intravenous dC(P2)dT: in vivo
Experimental: The systemic exposure of two mononucleotides (dCMP and dTMP) and their corresponding mononucleosides (dC and dT) following oral dosing of two mononucleotides (dCMP & dTMP) vs. intravenous dosing of a dinucleotide (dC(P2)dT) was determined. Test articles were prepared as follows:
Unlabeled test articles: dC=Deoxycytidine (nucleoside) dT=Deoxythymidine (nucleoside) dCMP=Deoxycytidine monophosphate (mononucleotide) dTMP=Deoxythymidine monophosphate (mononucleotide) dC(P2)dT or dT(P2)dC=Deoxycytidine-deoxythymidine diphosphate (dinucleotide) Labeled test articles: dC*=^15N3 labeled dC (labeled nucleoside) dT**=^13C10 and ^15N2 labeled dT (labeled nucleoside) The corresponding labeled nucleotides are dC*MP and dT**MP The corresponding labeled dinucleotide is dC*(P2)dT** or dT**(P2)dC*.
The nucleosides (dC and dT) and their corresponding monophosphate nucleotides (dCMP and dTMP) are naturally produced in the body. In order to differentiate naturally occurring vs exogenously administered dC/dT and dCMP/dTMP, a mixture of labeled dC*MP/dT**MP and unlabeled dCMP/dTMP was dosed via oral route, and a mixture of labeled dC*(P2)dT** and unlabeled dC(P2)dT via I.V. route. The labeled test articles served as tracers for the determination of systemic levels of exogenous dC/dT and dCMP/dTMP following dosing.
Plasma samples were then analyzed for the following analytes: dT**, dC*, dT**MP, dC*MP, and dC*(P2)dT**.
To correct for total TA (labeled+unlabeled) administered, the plasma levels of labeled analytes were multiplied by 10 and 5 for the P.O. and I.V. treatment groups, respectively. In addition, the total TA dose administered by P.O route was 1000 mg/kg (900 mg/kg unlabeled+100 mg/kg labeled) and 10 mg/kg (8 mg/kg unlabeled and 2 mg/kg labeled) for P.O. and I.V. treatment groups, respectively. To normalize by unit dose of TA administered the plasma levels of analytes were divided by 1000 and 10 for P.O. and I.V. treatment groups, respectively. The results of the label-corrected and dose-normalized levels of dT and dC for P.O. and I.V. routes of administration are shown in FIG. 2.
The differences in the AUC0-24h for I.V. vs. P.O. for both analytes are statistically different (p<0.01, t-test). The ratios of I.V./P.O. AUC(0-24h)'s are approximately 350 for dT and […].

[2] = Systemic exposure of dC and dT after a single I.V. vs one and two S.C. injections of dC(P2)dT (Example 2); format: in vivo; conditions: rats, 10 mg/kg total per dose (2 labeled + 8 unlabeled), initial 24 h post-dose
Experimental: The systemic exposure of dC and dT following a single I.V. injection of dC(P2)dT vs one and two subcutaneous (S.C.) injections of dC(P2)dT was compared, where the second S.C. injection is administered 24 h after the first.
Plasma levels of label-normalized dT and dC levels following a single I.V. and one and two S.C. administrations of labeled and unlabeled dC(P2)dT groups are shown in FIG. 4.

Row | metabolism in vivo (detectability of administered labeled analyte in plasma) [1] | higher oral dose needed to deliver comparable plasma exposure of the corresponding nucleoside compared with intravenous dC(P2)dT [1] | Compound | also measured
1 | rapid metabolism | – | Nc1ccn([C@H]2C[C@H](O)[C@@H](COP(=O)(O)O)O2)c(=O)n1 [dC*MP] | –
2 | – | approximately 110 fold | Nc1ccn([C@H]2C[C@H](O)[C@@H](COP(=O)(O)O)O2)c(=O)n1 [dCMP, Deoxycytidine monophosphate] | –
3 | rapid metabolism | – | Cc1cn([C@H]2C[C@H](O)[C@@H](COP(=O)(O)O)O2)c(=O)[nH]c1=O [dT**MP] | –
4 | – | approximately 350 fold | Cc1cn([C@H]2C[C@H](O)[C@@H](COP(=O)(O)O)O2)c(=O)[nH]c1=O [dTMP, Deoxythymidine monophosphate] | –
5 | – | – | Deoxycytidine-deoxythymidine diphosphate [dC(P2)dT] | ratio of plasma AUC0-24h I.V. vs P.O. for dC ([1]; label-corrected, dose-normalized total dC in plasma, I.V. dC(P2)dT 10 mg/kg total vs P.O. dCMP+dTMP 1000 mg/kg total, p<0.01, t-test): ~110 fold; ratio of plasma AUC0-24h I.V. vs P.O. for dT ([1]; label-corrected, dose-normalized total dT in plasma, I.V. dC(P2)dT 10 mg/kg total vs P.O. dCMP+dTMP 1000 mg/kg total, p<0.01, t-test): approximately 350 fold; mean AUC0-24h of dT and dC in plasma, I.V. vs one and two S.C. administrations [2]: not statistically different
